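A five-concentration, 48-hour dose response in 96-well plates underlies each endpoint, interpolated linearly between surrounding concentrations. At the TGI there is no net growth.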
Experiments:
Experiment in all cases: NCI tumour cell line growth inhibition, 48 h
[1] = system: SK-MEL-28 melanoma
[2] = system: UO-31 renal
[3] = system: TK-10 renal
[4] = system: SNB-19 CNS
[5] = system: A498 renal
[6] = system: HCT-116 colon
[7] = system: RPMI-8226 leukemia
[8] = system: NCI-H460 lung
[9] = system: UACC-257 melanoma
[10] = system: UACC-62 melanoma
[11] = system: SN12C renal
[12] = system: OVCAR-8 ovarian
[13] = system: SF-268 CNS
[14] = system: CCRF-CEM leukemia
[15] = system: OVCAR-5 ovarian
[16] = system: KM12 colon
[17] = system: HCT-15 colon
[18] = system: MOLT-4 leukemia
[19] = system: SK-OV-3 ovarian
[20] = system: HL-60(TB) leukemia

Row | Compound | TGI [1] [µM] | TGI [2] [µM] | TGI [3] [µM] | TGI [4] [µM] | TGI [5] [µM] | TGI [6] [µM] | TGI [7] [µM] | TGI [8] [µM] | TGI [9] [µM] | TGI [10] [µM] | TGI [11] [µM] | TGI [12] [µM] | TGI [13] [µM] | TGI [14] [µM] | TGI [15] [µM] | TGI [16] [µM] | TGI [17] [µM] | TGI [18] [µM] | TGI [19] [µM] | TGI [20] [µM]
1 | NC(=O)NC(CC(=O)O)C(=O)O (configuration not stated) | > 100 | > 100 | > 100 | > 100 | > 100 | > 100 | > 100 | > 100 | > 100 | > 100 | > 100 | > 100 | > 100 | > 100 | > 100 | > 100 | > 100 | > 100 |  | 
2 | CN(C)CCCc1cccnc1 | > 100 | > 100 | > 100 | > 100 | > 100 | > 100 | > 100 | > 100 | > 100 | > 100 | > 100 | > 100 | > 100 | > 100 | > 100 | > 100 | > 100 |  | > 100 | > 100
3 | Nc1ccc2cc(S(=O)(=O)O)cc(O)c2c1N=Nc1ccc(NC(=O)Nc2ccc(N=Nc3c(N)ccc4cc(S(=O)(=O)O)cc(O)c34)c(S(=O)(=O)O)c2)cc1S(=O)(=O)O | > 100 | > 100 |  |  | > 100 | > 100 |  | > 100 | > 100 | > 100 | > 100 | > 100 | > 100 | > 100 | > 100 | > 100 | > 100 | > 100 | > 100 | > 100
4 | O=c1[nH]c(=O)n(C2CC(O)C(COP(=O)(O)OC3CC(n4cc(F)c(=O)[nH]c4=O)OC3COP(=O)(O)OC3CC(n4cc(F)c(=O)[nH]c4=O)OC3COP(=O)(O)OC3CC(n4cc(F)c(=O)[nH]c4=O)OC3COP(=O)(O)OC3CC(n4cc(F)c(=O)[nH]c4=O)OC3COP(=O)(O)OC3CC(n4cc(F)c(=O)[nH]c4=O)OC3COP(=O)(O)OC3CC(n4cc(F)c(=O)[nH]c4=O)OC3COP(=O)(O)OC3CC(n4cc(F)c(=O)[nH]c4=O)OC3COP(=O)(O)OC3CC(n4cc(F)c(=O)[nH]c4=O)OC3COP(=O)(O)OC3CC(n4cc(F)c(=O)[nH]c4=O)OC3CO)O2)cc1F (configuration not stated) | > 50 | > 50 | > 50 | > 50 | 1.12 | > 50 | > 50 |  | > 50 |  | > 50 | > 50 | > 50 |  | > 50 | > 50 | > 50 | > 50 | > 50 | > 50
5 | COc1cc(C2C(Cl)C(=O)N2NC(=O)c2ccc(NC(C)=O)cc2)cc(Br)c1O (configuration not stated) | > 100 | > 100 | > 100 | > 100 |  | > 100 | > 100 | > 100 | > 100 | > 100 |  | > 100 | > 100 | > 100 | > 100 | > 100 |  | > 100 | > 100 | > 100
6 | O=C(N1CCOCC1)C1(c2ccccc2)CCNCC1 | > 100 | > 100 | > 100 | > 100 | > 100 | > 100 | > 100 | > 100 | > 100 | > 100 | > 100 | > 100 | > 100 | 78.8 | > 100 | > 100 | > 100 | > 100 | > 100 | 
7 | CCCCC(NC(=O)CC)C(=O)O (configuration not stated) | > 100 | > 100 |  | > 100 | > 100 | > 100 | > 100 | > 100 | > 100 | > 100 | > 100 | > 100 | > 100 | > 100 | > 100 | > 100 | > 100 | > 100 | > 100 | > 100
8 | CCc1ccc(CCC(=O)O)nc1 | > 100 | > 100 | > 100 | > 100 | > 100 | > 100 | > 100 | > 100 | > 100 | > 100 | > 100 | > 100 | > 100 | > 100 | > 100 | > 100 | > 100 |  | > 100 | > 100
9 | CCOc1ccc(C2=C(Cl)c3cc(OC)c(OC)cc3C2Cl)cc1 (configuration not stated) | > 100 | > 100 | > 100 | > 100 | 90.4 |  | 73 | > 100 |  | > 100 | > 100 | > 100 | > 100 | > 100 |  |  | > 100 | 78.4 | > 100 | 49.4
10 | CC(N)C(=O)c1ccc(O)cc1 (configuration not stated) | > 100 | > 100 | > 100 | > 100 | > 100 | > 100 | > 100 | > 100 | > 100 | > 100 | > 100 | > 100 | > 100 | > 100 | > 100 | > 100 | > 100 | > 100 | > 100 | > 100
11 | COc1nc(/C=N/NC(N)=S)nc(OC)n1 | > 100 | > 100 | > 100 | > 100 | > 100 | > 100 | > 100 | > 100 | > 100 | > 100 | > 100 | > 100 | > 100 |  | > 100 | > 100 |  | > 100 | > 100 | > 100
12 | CC(=O)Nc1ccc(C2=N/C(=C\c3ccc(Cl)c(Cl)c3)C(=O)O2)cc1 | > 100 | > 100 | > 100 | > 100 | > 100 | > 100 | > 100 | > 100 | > 100 | > 100 | > 100 | > 100 | > 100 | > 100 | > 100 | > 100 | > 100 | > 100 | > 100 | > 100
13 | CC1C(=O)C(C)C(c2cccs2)N(N=O)C1c1cccs1 (configuration not stated) | > 100 | > 100 |  | > 100 | > 100 | > 100 | > 100 | > 100 | > 100 | > 100 | > 100 | > 100 | > 100 | > 100 | > 100 | > 100 | > 100 | > 100 | > 100 | > 100
14 | c1ccc2c(c1)ccc1ncccc12 | > 100 | > 100 | > 100 | > 100 | > 100 | > 100 | > 100 | > 100 | > 100 | > 100 | > 100 | > 100 | > 100 |  | > 100 | > 100 | > 100 | > 100 |  | > 100
15 | CN1C[C@H]2[C@@H](C1=O)[C@H](c1ccc([N+](=O)[O-])cc1)ON2C | > 100 | > 100 | > 100 | > 100 |  | > 100 | > 100 | > 100 | > 100 |  | > 100 | > 100 |  | > 100 | > 100 |  | > 100 | > 100 | > 100 | > 100

From PubChem BioAssay (NCI)
